Measured values published in US8518460B2, “Use of total coumarins of cnidium fruit in preparing medicaments for treating psoriasis” (priority 2002, dated 2013).

System: swelling of rat toes induced by egg-white
Test: Swelling of rat toes induced by egg-white injection
Type: in vivo, rats
Conditions: 0.3 g ointment per toe, repeated after 0.5 hour
Method: 50 SD rats, 150 g±10 g, were divided randomly into five groups. The volume of the toes at the same side of rats among the 5 groups was measured. 10% of egg white was injected into the toes, 0.2 ml each toe. After that, rats of two groups were anointed respectively with 0.15 g and 0.3 g of an ointment of total coumarins (containing 10% total coumarins) at each toe. Rats of other two groups were respectively anointed with 0.3 g of a blank ointment and 0.3 g of an ointment of anthralin at each toe. The rest one group was treated nothing as a control. 0.5 hour later, the above treatment was repeated. At 1st, 2nd, 4th, and 6th hour the volume of the toes were measured. The difference of the volume was regarded as the degree of the swelling of the toes.

## O=C1c2c(O)cccc2Cc2cccc(O)c21 [Anthralin, anthralin]
1 h
  Degree of toe swelling (volume increase): 0.408 ± 0.201 mL
2 h
  Degree of toe swelling (volume increase): 0.391 ± 0.209 mL
4 h
  Degree of toe swelling (volume increase): 0.375 ± 0.189 mL
6 h
  Degree of toe swelling (volume increase): 0.351 ± 0.165 mL
